Results: US8252781B2, “1,2-diazetidin-3-one derivatives and drugs containing same” (Kowa Company, Ltd., priority 2008, dated 2012)

Experiments:
Type in all cases: biochemical
[1] = molecular target: T1, human 11β-HSD1 (Homo sapiens, UniProt P28845); assay: Enzyme inhibitory activity, human 11β-HSD1 (lysate of stably expressing HEK293 cells, cortisol by competitive ELISA); settings: Table 1; human 11β-HSD1, cell lysate, 37° C. for 1 hour; read-out: h HSD1 in vitro assay (IC50 uM)
T1 construct: The obtained PCR products of about 0.9 kbp, 1.2 kbp, and 0.9 kbp were subcloned into an expression vector pcDNA3.1+/Zeo; expressed in transfected cells
How it was run: (§1)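 Sonicated lysates of stably transfected cells (diluted to 0.1–0.4 mg/mL before addition) reacted for 1 h at 37 °C in pH 7.4 Tris/sucrose/EGTA/EDTA/MgCl2 buffer with 100 nmol/L cortisone or cortisol and 400 μmol/L NADPH or NAD+, then were heat-stopped at 95 °C. Inhibition rate = 100 minus residual activity.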

[2] = molecular target: T2, human 11β-HSD2 (Homo sapiens, UniProt P80365); assay: Enzyme inhibitory activity, human 11β-HSD2 (lysate of stably expressing HEK293 cells, cortisol by competitive ELISA); settings: Table 1; human 11β-HSD2, cell lysate, 37° C. for 1 hour; read-out: h HSD2 in vitro assay (IC50 uM)
T2 construct: The obtained PCR products of about 0.9 kbp, 1.2 kbp, and 0.9 kbp were subcloned into an expression vector pcDNA3.1+/Zeo; expressed in transfected cells
T2 sequence (P80365 1-405): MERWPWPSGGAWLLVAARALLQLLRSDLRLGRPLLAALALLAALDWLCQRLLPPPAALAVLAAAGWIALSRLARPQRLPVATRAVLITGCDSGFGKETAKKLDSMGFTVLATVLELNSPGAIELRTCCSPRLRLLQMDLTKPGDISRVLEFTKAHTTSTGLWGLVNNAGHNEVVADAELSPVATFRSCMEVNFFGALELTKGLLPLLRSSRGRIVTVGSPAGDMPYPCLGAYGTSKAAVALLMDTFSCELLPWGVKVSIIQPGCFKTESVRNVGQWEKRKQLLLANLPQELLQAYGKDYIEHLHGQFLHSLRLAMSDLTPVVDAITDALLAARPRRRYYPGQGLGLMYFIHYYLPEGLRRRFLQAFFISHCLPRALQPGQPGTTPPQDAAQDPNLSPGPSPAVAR
Protocol: 1. Human 11β-HSD1-, Human 11β-HSD2- and Mouse 11β-HSD1-Gene Clonings and Establishment of Stably Expressing Cells
Human 11β-HSD1-, human 11β-HSD2-, and mouse 11β-HSD1-gene clonings were conducted using as a template a reverse transcription product of human-liver RNA, human-kidney RNA (CELL APPLICATIONS), and mouse-kidney RNA respectively, by means of PCR cloning with reference to nucleotide sequences of Genbank Accession Nos. NM_005525, NM_000196, and NM_008288. The obtained PCR products of about 0.9 kbp, 1.2 kbp, and 0.9 kbp were subcloned into an expression vector pcDNA3.1+/Zeo (Invitrogen).
Human 11β-HSD1- and human 11β-HSD2-expressing vectors were transfected into human kidney-derived cell line, HEK293 cells, using a transfection reagent, jet PEI (Funakoshi). Mouse 11β-HSD1 was transfected to Chinese hamster ovary-derived cell line, CHO-K1 cells. Selection was conducted with 200-400 μg/mL of zeocine (Invitrogen) to provide stably expressing-cell clones. The stably expressing cells were suspended in buffer solution A (20 mmol/L Tris-HCl, pH 7.4, 250 mmol/L sucrose, 1 mmol/L EGTA, 1 mmol/L EDTA, 1 mmol/L MgCl2), sonicated, and then stored at −80° C.
2. Assay of Enzyme Inhibitory Activity
An enzymatic reaction was conducted using a polystyrene 96-well plate. Each well was added with 1 μL of a test agent dissolved in DMSO and then diluted (0.003 to 3 mmol/L), and further added with 10 μL of cell lysate diluted to a concentration of 0.1 mg/mL to 0.4 mg/mL. Next, 90 μL of buffer solution A containing substrate (100 nmol/L cortisone or cortisol) and coenzyme (400 μmol/L NADPH or NAD+) was added and the mixture was incubated at 37° C. for 1 hour. The enzymatic reaction was stopped by treating at 95° C. for 3 minutes. Cortisol that was present in the reaction solution was determined by a competitive ELISA shown below.
Anti-rabbit IgG antibody (Chemi-con) diluted to 2 μg/mL with carbonate buffer solution (pH 9.6) was added in 100 μL each to a 96-well immuno plate (Nunc) and immobilized by an incubation at 4° C. overnight. 50 μL of enzymatic reaction solution was put onto the plates, and further, anti-cortisol antibody (Cosmo Bio) and HRP-labeled cortisol (Cosmo Bio), diluted with buffer solution B (25 mmol/L Tris-HCl pH 7.4, 137 mmol/L NaCl, 2.68 mmol/L KCl), were added in 50 μL respectively and incubated at 4° C. overnight. After washed three times with buffer solution B containing 0.05% Tween 20, the plates were allowed to develop color by adding 100 μL of color reagent, TMB (Moss). The color reaction was stopped by 25 μL of 1 mol/L sulfuric acid and the absorbance was determined at 450 nm with a microplate reader (Molecular Device, VersaMax).
The values of human 11β-HSD1, human 11β-HSD2, and mouse 11β-HSD1 activities were subtracted from 100, and the resultant values were regarded as the respective 11β-HSD inhibition rates of example compounds. […] The comparison of human 11β-HSD1 and human 11β-HSD2 inhibiting activities is shown in Table 1, and the comparison of human 11β-HSD1 and mouse 11β-HSD1 inhibiting activities is shown in Table 2.

[3] = molecular target: T3, mouse 11β-HSD1 (Mus musculus, UniProt P50172); assay: Enzyme inhibitory activity, mouse 11β-HSD1 (lysate of stably expressing CHO-K1 cells, cortisol by competitive ELISA); settings: Table 2; mouse 11β-HSD1, cell lysate, 37° C. for 1 hour; read-out: m HSD1 in vitro assay (IC50 uM)
T3 construct: The obtained PCR products of about 0.9 kbp, 1.2 kbp, and 0.9 kbp were subcloned into an expression vector pcDNA3.1+/Zeo; expressed in transfected cells
How it was run: as §1

T3 sequence (P50172 whole entry): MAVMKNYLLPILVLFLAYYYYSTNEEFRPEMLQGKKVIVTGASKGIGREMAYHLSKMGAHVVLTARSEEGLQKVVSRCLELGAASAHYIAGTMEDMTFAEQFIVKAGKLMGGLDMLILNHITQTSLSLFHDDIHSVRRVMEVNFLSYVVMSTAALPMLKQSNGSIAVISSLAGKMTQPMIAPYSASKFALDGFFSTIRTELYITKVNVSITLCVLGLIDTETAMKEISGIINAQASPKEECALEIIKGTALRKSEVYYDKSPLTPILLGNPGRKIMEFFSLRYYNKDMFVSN
T1 sequence (P28845 whole entry): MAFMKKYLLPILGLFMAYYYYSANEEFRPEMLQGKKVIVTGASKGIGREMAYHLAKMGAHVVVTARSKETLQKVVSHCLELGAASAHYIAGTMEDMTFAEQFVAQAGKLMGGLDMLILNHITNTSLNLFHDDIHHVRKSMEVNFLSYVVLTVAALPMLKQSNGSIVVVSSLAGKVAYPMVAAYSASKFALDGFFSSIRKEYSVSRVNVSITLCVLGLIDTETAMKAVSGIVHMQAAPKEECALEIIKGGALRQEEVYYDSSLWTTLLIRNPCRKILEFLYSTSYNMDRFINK

| Structure (SMILES) | IC50 [1] [µM] | IC50 [2] [µM] | IC50 [3] [µM] |
| --- | --- | --- | --- |
| CC1(C)C(=O)N([C@H]2C3CC4CC2C[C@@](C(=O)O)(C4)C3)N1c1cccc2ccccc12 [Example 272, cis-4-[2-(naphthalen-1-yl)-3,3-dimethyl-4-oxo-1,2-diazetidin-1-yl]adamantane-1-carboxylic acid] | 0.05 | > 30 | 0.9 |
| CC1(C)C(=O)N(C2C3CC4CC(C3)CC2C4)N1c1cccc2ccccc12 (stereo not drawn) [Example 212, 4,4-dimethyl-1-(naphthalen-1-yl)-2-(adamantan-2-yl)-1,2-diazetidin-3-one] | 0.032 | 3 to 30 | 0.089 |
| CCc1ccccc1CN1N(C2C3CC4CC(C3)CC2C4)C(=O)C1(C)C (stereo not drawn) [Example 50, 1-(2-ethylbenzyl)-4,4-dimethyl-2-(adamantan-2-yl)-1,2-diazetidin-3-one] | 0.042 | 6.6 | 0.16 |
| CC1(C)C(=O)N([C@H]2C3CC4CC2C[C@](Cl)(C4)C3)N1c1cccc(Cl)c1Cl [Example 251, trans-2-(5-chloroadamantan-2-yl)-1-(2,3-dichlorophenyl)-4,4-dimethyl-1,2-diazetidin-3-one] | 0.03 | 3 to 30 | 0.61 |
| COCOc1ccccc1N1N(C2C3CC4CC(C3)CC2C4)C(=O)C1(C)C (stereo not drawn) [Example 218, 1-[2-(methoxymethoxy)phenyl]-4,4-dimethyl-2-(adamantan-2-yl)-1,2-diazetidin-3-one] | 0.81 | > 30 | 0.57 |
| CC1(C)C(=O)N(C2C3CC4CC(C3)CC2C4)N1c1ccc(O)cc1 (stereo not drawn) [Example 215, 4,4-dimethyl-1-(4-hydroxyphenyl)-2-(adamantan-2-yl)-1,2-diazetidin-3-one] | 0.023 | 4.5 | 0.54 |
| CC1(C)C(=O)N([C@H]2C3CC4CC2C[C@](O)(C4)C3)N1c1ccccc1Cl [Example 227, trans-1-(2-chlorophenyl)-2-(5-hydroxyadamantan-2-yl)-4,4-dimethyl-1,2-diazetidin-3-one] | 0.023 | 3 to 30 | 0.95 |
| CC1(C)C(=O)N(C2C3CC4CC(C3)CC2C4)N1c1cccc(Cl)c1Cl (stereo not drawn) [Example 206, 1-(2,3-dichlorophenyl)-4,4-dimethyl-2-(adamantan-2-yl)-1,2-diazetidin-3-one] | 0.0061 | 3 to 30 | 0.44 |
| COc1ccccc1N1N([C@H]2C3CC4CC2C[C@](Cl)(C4)C3)C(=O)C1(C)C [Example 250, trans-2-(5-chloroadamantan-2-yl)-1-(2-methoxyphenyl)-4,4-dimethyl-1,2-diazetidin-3-one] | 0.042 | > 30 | 0.13 |
| Cc1ccc(C)c(C(=O)N2N(C3C4CC5CC(C4)CC3C5)C(=O)C2(C)C)c1 (stereo not drawn) [Example 161, 1-[(2,5-dimethylphenyl)carbonyl]-4,4-dimethyl-2-(adamantan-2-yl)-1,2-diazetidin-3-one] | 0.5 | > 30 | 0.23 |
| CC1(C)C(=O)N(C2C3CC4CC(C3)CC2C4)N1c1ccccc1[N+](=O)[O-] (stereo not drawn) [Example 188, 4,4-dimethyl-1-(2-nitrophenyl)-2-(adamantan-2-yl)-1,2-diazetidin-3-one] | 0.082 | > 30 | 0.76 |

The next lines start with the values.

| IC50 [1] [µM] | IC50 [2] [µM] | IC50 [3] [µM] | Structure (SMILES) |
| --- | --- | --- | --- |
| 0.031 | > 30 | 0.5 | CC1(C)C(=O)N(C2C3CC4CC(C3)CC2C4)N1Cc1ccc(F)cc1C(F)(F)F (stereo not drawn) [Example 48, 1-[4-fluoro-2-(trifluoromethyl)benzyl]-4,4-dimethyl-2-(adamantan-2-yl)-1,2-diazetidin-3-one] |
| 0.023 | 3 to 30 | 0.29 | CC1(C)C(=O)N(C2CCCCCCC2)N1c1cccc(Cl)c1Cl [Example 221, 2-cyclooctyl-1-(2,3-dichlorophenyl)-4,4-dimethyl-1,2-diazetidin-3-one] |
| 0.023 | 3.2 | 0.13 | CC1(C)C(=O)N(C2C3CC4CC(C3)CC2C4)N1Cc1cc(F)ccc1Cl (stereo not drawn) [Example 41, 1-(2-chloro-5-fluorobenzyl)-4,4-dimethyl-2-(adamantan-2-yl)-1,2-diazetidin-3-one] |
| 0.031 | 4.8 | 0.14 | CC1(C)C(=O)N(C2CCCCCCC2)N1Cc1ccc(F)cc1Cl [Example 76, 1-(2-chloro-4-fluorobenzyl)-2-cyclooctyl-4,4-dimethyl-1,2-diazetidin-3-one] |
| 0.019 | 5.5 | 0.087 | CC1(C)C(=O)N(C2CCCCCCC2)N1c1cccc2ccccc12 [Example 222, 2-cyclooctyl-4,4-dimethyl-1-(naphthalen-1-yl)-1,2-diazetidin-3-one] |
| 0.015 | 3 | 0.04 | CC1(C)C(=O)N(C2C3CC4CC(C3)CC2C4)N1Cc1ccccc1Br (stereo not drawn) [Example 39, 1-(2-bromobenzyl)-4,4-dimethyl-2-(adamantan-2-yl)-1,2-diazetidin-3-one] |
| 0.016 | 2 | 0.092 | CC1(C)C(=O)N(C2CCCCCCC2)N1Cc1cc(F)ccc1Cl [Example 77, 1-(2-chloro-5-fluorobenzyl)-2-cyclooctyl-4,4-dimethyl-1,2-diazetidin-3-one] |
| 0.078 | 9.5 | 0.16 | CC1(C)C(=O)N(C2C3CC4CC(C3)CC2C4)N1Cc1ccc(Cl)cc1Cl (stereo not drawn) [Example 52, 1-(2,4-dichlorobenzyl)-4,4-dimethyl-2-(adamantan-2-yl)-1,2-diazetidin-3-one] |
| 0.046 | 3 to 30 | 0.13 | CC1(C)C(=O)N(C2CCCCCCC2)N1Cc1cccc(Cl)c1Cl [Example 74, 2-cyclooctyl-1-(2,3-dichlorobenzyl)-4,4-dimethyl-1,2-diazetidin-3-one] |
| 0.012 | 10 | 0.084 | CC1(C)C(=O)N(C2C3CC4CC(C3)CC2C4)N1Cc1ccccc1I (stereo not drawn) [Example 40, 1-(2-iodobenzyl)-4,4-dimethyl-2-(adamantan-2-yl)-1,2-diazetidin-3-one] |
